Laboratory results: patent US20250346585A1 (Alexion Pharmaceuticals, Inc., priority 2022, published 2025)
Like-named read-outs stand apart in the source and are kept apart here.

Molecular target: Human complement C1s enzyme (Homo sapiens (Human), UniProt P09871)
Test: Human C1s enzyme assay
Format: biochemical
Details: read-out: IC50 (Stars)
How it was run: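 IC50 derived by nonlinear regression of rate versus concentration, with rate taken from A405 kinetics (30 s intervals, 30 min) after adding 100 μM each Z-L-Lys-SBzl and DTNB. C1s from human serum, 1.16 nM, exposed to compound for 5 min at RT beforehand; buffer 50 mM Tris, 1 M NaCl, pH 7.5.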

[1] = Human complement C1s enzyme 1.16 nM, substrate Z-L-Lys-SBzl 100 μM, assay of Example 3
[2] = Human C1s enzyme assay of Example 3

Sequence of Human complement C1s enzyme (P09871 438-688 limits assumed): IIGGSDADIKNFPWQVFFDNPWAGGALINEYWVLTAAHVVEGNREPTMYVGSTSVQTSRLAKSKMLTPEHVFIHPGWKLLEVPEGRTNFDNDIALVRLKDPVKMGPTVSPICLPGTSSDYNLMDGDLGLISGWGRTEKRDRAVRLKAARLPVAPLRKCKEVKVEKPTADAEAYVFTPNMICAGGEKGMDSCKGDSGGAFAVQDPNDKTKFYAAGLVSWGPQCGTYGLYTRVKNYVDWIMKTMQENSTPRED
Sequence of Human complement C1s enzyme (P09871 16-437 partner limits assumed): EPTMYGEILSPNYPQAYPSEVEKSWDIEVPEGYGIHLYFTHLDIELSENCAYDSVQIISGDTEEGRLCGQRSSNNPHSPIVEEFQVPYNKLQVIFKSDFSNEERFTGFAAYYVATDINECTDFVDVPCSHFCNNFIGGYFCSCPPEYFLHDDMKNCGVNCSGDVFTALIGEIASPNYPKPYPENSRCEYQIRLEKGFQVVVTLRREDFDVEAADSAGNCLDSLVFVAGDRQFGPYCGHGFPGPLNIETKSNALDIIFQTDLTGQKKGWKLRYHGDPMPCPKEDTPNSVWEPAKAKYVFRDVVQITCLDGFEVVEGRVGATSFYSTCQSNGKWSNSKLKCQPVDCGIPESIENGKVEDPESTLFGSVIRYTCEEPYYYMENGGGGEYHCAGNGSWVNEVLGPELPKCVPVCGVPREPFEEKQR

| SMILES | IC50 [1] [nM] | IC50 [2] [nM] |
| --- | --- | --- |
| CC(C)OC(=O)/N=C(/N)c1csc([C@@H](C)NC(=O)[C@@H]2CC3(CN2C(=O)CNC(=O)c2ccc4c(c2)-c2ccccc2C4(F)F)OCCO3)c1 [Compound 134, isopropyl ((E)-amino(5-((R)-1-((S)-7-((9,9-difluoro-9H-fluorene-3-carbonyl)glycyl)-1,4-dioxa-7-azaspiro[4.4]nonane-8-carboxamido)ethyl)thiophen-3-yl)methylene)carbamate] | – | < 100 |
| C[C@@H](NC(=O)[C@@H]1C[C@]2(Cn3cncn3)C[C@@H]2N1C(=O)CNC(=O)c1ccc2c(c1)-c1ccccc1C2(F)F)c1cc(C(=N)N)cs1 [Compound 281, (1S,3S,5S)-5-((1H-1,2,4-triazol-1-yl)methyl)-N—((R)-1-(4-carbamimidoylthiophen-2-yl)ethyl)-2-((9,9-difluoro-9H-fluorene-3-carbonyl)glycyl)-2-azabicyclo[3.1.0]hexane-3-carboxamide] | < 100 | – |
| Cc1cnc(-c2ccc(C(=O)NCC(=O)N3CC4(C[C@H]3C(=O)N[C@H](C)c3cc(C(=N)N)cs3)OCCO4)cc2)c(C)c1 [Compound 173, (S)—N—((R)-1-(4-carbamimidoylthiophen-2-yl)ethyl)-7-((4-(3,5-dimethylpyridin-2-yl)benzoyl)glycyl)-1,4-dioxa-7-azaspiro[4.4]nonane-8-carboxamide] | – | < 100 |
| C[C@H]1C[C@@H](C(=O)N[C@H](C)c2cc(C(=N)N)cs2)N(C(=O)CNC(=O)c2ccc3oc4ccccc4c3c2)C1 [Compound 226, (2S,4S)—N—((R)-1-(4-carbamimidoylthiophen-2-yl)ethyl)-1-((dibenzo[b,d]furan-2-carbonyl)glycyl)-4-methylpyrrolidine-2-carboxamide] | < 100 | – |
| COC[C@@]1(F)C[C@@H](C(=O)NCc2cc(C(=N)N)cs2)N(C(=O)CNC(=O)c2ccc3c(c2)-c2ccccc2C3(F)F)C1 [Compound 58, (2S,4R)—N-((4-carbamimidoylthiophen-2-yl)methyl)-1-((9,9-difluoro-9H-fluorene-3-carbonyl)glycyl)-4-fluoro-4-(methoxymethyl)pyrrolidine-2-carboxamide] | – | < 100 |
| C[C@@H](NC(=O)[C@@H]1C[C@@H](OC(F)F)CN1C(=O)CNC(=O)c1ccc2c(c1)-c1ccccc1C2(F)F)c1cc(C(=N)N)cs1 [Compound 9, (2S,4R)—N—((R)-1-(4-carbamimidoylthiophen-2-yl)ethyl)-1-((9,9-difluoro-9H-fluorene-3-carbonyl)glycyl)-4-(difluoromethoxy)pyrrolidine-2-carboxamide] | – | < 100 |
| C[C@@H](NC(=O)[C@@H]1C[C@@H](S(C)(=O)=O)CN1C(=O)CNC(=O)c1ncc(-c2ccccc2)cc1F)c1cc(C(=N)N)cs1 [Compound 339, N-(2-((2S,4R)-2-(((R)-1-(4-carbamimidoylthiophen-2-yl)ethyl)carbamoyl)-4-(methylsulfonyl)pyrrolidin-1-yl)-2-oxoethyl)-3-fluoro-5-phenylpicolinamide] | < 100 | – |
| C[C@@H](NC(=O)[C@@H]1CC2(CN1C(=O)CNC(=O)c1ccc3oc4ccccc4c3c1)OCCO2)c1cc(C(=N)N)cs1 [Compound 137, (S)—N—((R)-1-(4-carbamimidoylthiophen-2-yl)ethyl)-7-((dibenzo[b,d]furan-2-carbonyl)glycyl)-1,4-dioxa-7-azaspiro[4.4]nonane-8-carboxamide] | – | < 100 |
| C[C@@H](NC(=O)[C@@H]1CC2(CN1C(=O)CNC(=O)c1ccc3nc4ccccc4cc3c1)OCCO2)c1cc(C(=N)N)cs1 [Compound 391, (S)-7-((acridine-2-carbonyl)glycyl)-N—((R)-1-(4-carbamimidoylthiophen-2-yl)ethyl)-1,4-dioxa-7-azaspiro[4.4]nonane-8-carboxamide] | < 100 | – |
| Cc1ccc(Oc2ccc(C(=O)NCC(=O)N3C[C@H](OC(F)F)C[C@H]3C(=O)NCc3cc(C(=N)N)cs3)cc2)cc1 [Compound 10, (2S,4R)—N-((4-carbamimidoylthiophen-2-yl)methyl)-4-(difluoromethoxy)-1-((4-(p-tolyloxy)benzoyl)glycyl)pyrrolidine-2-carboxamide] | – | < 100 |

The remaining lines, values ahead:

| IC50 [1] [nM] | IC50 [2] [nM] | SMILES |
| --- | --- | --- |
| < 100 | – | C[C@@H](NC(=O)[C@@H]1CC2(CN1C(=O)Cc1ccc(-c3ccc(F)cc3F)cc1)OCCO2)c1cc(C(=N)N)cs1 [Compound 321, (S)—N—((R)-1-(4-carbamimidoylthiophen-2-yl)ethyl)-7-(2-(2′,4′-difluoro-[1,1′-biphenyl]-4-yl)acetyl)-1,4-dioxa-7-azaspiro[4.4]nonane-8-carboxamide] |
| < 100 | – | C[C@@H](NC(=O)[C@@H]1CC2(CN1C(=O)CNC(=O)c1ccc3c(c1)-c1ccccc1C3OC(F)F)OCCO2)c1cc(C(=N)N)cs1 (stereo partly drawn) [Compound 204] |
| – | < 100 | C[C@@H](NC(=O)[C@@H]1CC2(CN1C(=O)CNC(=O)c1ccc(-c3ccc(F)cc3)c(F)c1)OCCO2)c1cc(C(=N)N)cs1 [Compound 175, (S)—N—((R)-1-(4-carbamimidoylthiophen-2-yl)ethyl)-7-((2,4′-difluoro-[1,1′-biphenyl]-4-carbonyl)glycyl)-1,4-dioxa-7-azaspiro[4.4]nonane-8-carboxamide] |
| – | > 1000 | C[C@@H](NC(=O)[C@@H]1CC2(CN1C(=O)CNC(=O)c1ccc3c(c1)-c1ccccc1C3(F)F)OCCO2)c1cc(-c2cc[nH]n2)cs1 [Compound 97, (S)—N—((R)-1-(4-(1H-pyrazol-3-yl)thiophen-2-yl)ethyl)-7-((9,9-difluoro-9H-fluorene-3-carbonyl)glycyl)-1,4-dioxa-7-azaspiro[4.4]nonane-8-carboxamide] |
| < 100 | – | C[C@@H](NC(=O)[C@@H]1C[C@H](CO)CN1C(=O)CNC(=O)c1ccc2c(c1)-c1ccccc1C2(F)F)c1cc(C(=N)N)cs1 (relative stereo) [Compound 306, (2S,4S*)—N—((R)-1-(4-carbamimidoylthiophen-2-yl)ethyl)-1-((9,9-difluoro-9H-fluorene-3-carbonyl)glycyl)-4-(hydroxymethyl)pyrrolidine-2-carboxamide] |
| < 100 | – | C[C@@H](NC(=O)[C@@H]1C[C@@H](S(C)(=O)=O)CN1C(=O)CNC(=O)c1ccc2c(c1)sc1ccccc12)c1cc(C(=N)N)cs1 [Compound 378, (2S,4R)—N—((R)-1-(4-carbamimidoylthiophen-2-yl)ethyl)-1-((dibenzo[b,d]thiophene-3-carbonyl)glycyl)-4-(methylsulfonyl)pyrrolidine-2-carboxamide] |
| > 1000 | – | C=CC(=O)Nc1csc(CNC(=O)[C@@H]2CC3(CN2C(=O)CNC(=O)c2ccc(Oc4ccc(F)cc4)cc2)OCCO3)c1 [Compound 309, (S)-N-((4-acrylamidothiophen-2-yl)methyl)-7-((4-(4-fluorophenoxy)benzoyl)glycyl)-1,4-dioxa-7-azaspiro[4.4]nonane-8-carboxamide] |
| < 100 | – | CO[C@@H]1C[C@@H](C(=O)N[C@H](C)c2cc(C(=N)N)cs2)N(C(=O)CNC(=O)c2ccc3oc4ccccc4c3c2)C1 [Compound 221, (2S,4R)—N—((R)-1-(4-carbamimidoylthiophen-2-yl)ethyl)-1-((dibenzo[b,d]furan-2-carbonyl)glycyl)-4-methoxypyrrolidine-2-carboxamide] |
